Values quoted from earlier work as cited in article PMC3203620 (The Journal of Organic Chemistry, 2011).

Assays:
Mt = settings: due to poor uptake
[1] = tested on: Plasmodium falciparum DXR

SMILES: O=CN(O)CCCP(=O)(O)O [Compound 1, fosmidomycin]
- pharmacokinetic properties: poor pharmacokinetic properties
- activity on Mt at the whole cell level (Mt): inactive
- inhibition of Plasmodium falciparum DXR in vitro [1]: potent inhibitor
- activity in vivo in P. vinckei infected mice (P. vinckei): potent inhibitor
